This passage reports inhibition results from article PMC6934184, “Selective DNA-PKcs inhibition extends the therapeutic index of localized radiotherapy and chemotherapy” (The Journal of Clinical Investigation, 2019).

This assay concerns the target T1, FGFR1 (Homo sapiens, UniProt P11362).
T1 construct: purchased Thermo Fisher Scientific (Life Technologies) SelectScreen
Kind of assay: SelectScreen Z'LYTE. The assay is classed as biochemical. The method, boiled down: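 NU5455 was profiled across the SelectScreen Broad panel of kinase activity and binding assays. Z'LYTE reactions such as CSF1R ran at apparent Km ATP, while the Adapta CAMK1 assay used ATP listed as 10. Values are given as percent.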

T1 sequence (P11362 22-822): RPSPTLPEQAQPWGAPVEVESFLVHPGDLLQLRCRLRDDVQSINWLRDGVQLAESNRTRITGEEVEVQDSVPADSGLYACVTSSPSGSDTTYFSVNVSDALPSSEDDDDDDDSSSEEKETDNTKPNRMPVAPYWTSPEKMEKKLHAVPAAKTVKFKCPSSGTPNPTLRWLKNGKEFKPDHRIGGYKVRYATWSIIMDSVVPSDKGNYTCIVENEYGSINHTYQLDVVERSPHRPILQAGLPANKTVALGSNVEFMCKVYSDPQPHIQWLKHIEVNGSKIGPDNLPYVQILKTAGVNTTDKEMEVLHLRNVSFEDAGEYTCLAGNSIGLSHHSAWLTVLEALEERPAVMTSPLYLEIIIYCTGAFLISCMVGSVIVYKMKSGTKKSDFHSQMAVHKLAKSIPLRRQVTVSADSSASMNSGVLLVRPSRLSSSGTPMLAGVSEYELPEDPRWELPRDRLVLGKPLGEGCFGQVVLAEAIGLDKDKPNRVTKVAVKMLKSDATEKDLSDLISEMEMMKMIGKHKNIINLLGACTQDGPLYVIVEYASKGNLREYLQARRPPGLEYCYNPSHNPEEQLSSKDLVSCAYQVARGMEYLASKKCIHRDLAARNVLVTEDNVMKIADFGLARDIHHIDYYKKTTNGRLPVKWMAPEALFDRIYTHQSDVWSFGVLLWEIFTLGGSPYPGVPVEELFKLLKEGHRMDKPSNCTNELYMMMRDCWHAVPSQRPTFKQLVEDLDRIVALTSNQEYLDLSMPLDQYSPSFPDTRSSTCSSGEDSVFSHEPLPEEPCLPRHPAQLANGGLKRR

For `CN(C(=O)CN1CCOCC1)c1ccc2sc3c(-c4cccc5c(=O)cc(N6CC7CCC(C6)O7)oc45)cccc3c2c1` [NU5455], the inhibition at 1 µM amounted to 4.7%.

Broadly, the inhibition is the percentage by which the read-out fell short of the control. A high value points to a response far below the control.
